Assay results from patent US10118922B2 (Janssen Pharmaceutica NV, priority 2013, dated 2018).

What was measured:
[1] = system: C57B16 mice on a high fat diet; test: GPR120 DIO mice OGTT screening; type: in vivo, mouse; conditions: dosed 30 min prior to glucose PO
Description: 18-22 week old, C57B16 mice on a high fat diet (60% HFD) for 12-16 weeks (ave. body weight ˜37-41 g) were fasted for 6 hr, with removal of food occurring at 7 am on the morning of the study. The animals were sorted into treatment groups the day before the study by body weight. Animals outside the bounds of ˜30-50 g were left out of the study. The animals had been handled and shammed a total of 5-8 days (1-3 days immediately prior to the study). Glucose (in 1 mL syringes) was drawn up the morning of the study. Test compounds were kept spinning and were only drawn into 1 ml syringes prior to study commencement. Animals were bled via tail snip to determine basal glucose levels prior to dosing of treatments. An Ascensia BREEZE Blood Glucose Monitoring System by Bayer was used for determining glucose levels.
Animals were moved into the testing room at ˜9-11 am, to yield them time to acclimate. The bleeds and dosing started at approximately 1 pm in 30-second intervals per animal. All groups were dosed 30 minutes prior to glucose administration at a dose volume of 10 ml/kg (the dose volume was calculated separately for each individual animal). Test compounds were administered at one or more of the following dosages: 0.1 mg/kg, 0.3 mg/kg, 1 mg/kg, 3 mg/kg and 10 mg/kg.
Thirty minutes after the first dose (with test compound) animals were bled again for a second baseline, or T=0, and immediately dosed with glucose (20% solution; TEKNOVA, 250 ml sterile bottle w/ catalogue number G0525) via a PO injection. The exact dose volume for glucose was also calculated separately for each individual animal.
Blood glucose was measured at 15, 30, 45, 60, and 90 minutes post-glucose administration via the snipped tail. If an animal reached a value of “HI”, the upper limit of the glucometer (600 mg/dl) was substituted as the blood glucose value and the study was analyzed as normal with no exclusions. If 50% or more of any treatment group reaches a “HI” value at least once, the study was considered invalid and repeated. Glucose values were typed into an EXCEL spreadsheet where they were used to calculate glucose AUC and delta AUC post-compound and post-glucose. The glucose excursion curves and the different versions of the AUC's were graphed in GraphPad Prism 5.
Note: All statistics completed in this study were completed using the statistical software package GraphPad Prism 5. Standard procedures for analyzing data sets from screening GPR120 compounds in DIO mouse OGTT's were as listed here below. In addition to the statistics that were run using GraphPad Prism 5, Microsoft Excel was used to calculate the percent changes in AUC from vehicle groups as detailed below.
Change from −30 to 0 BSLN Glucose, Raw Glucose AUC −30 to 90 min, Delta Glucose AUC −30 to 90 min, Raw Glucose AUC 0 to 90 min, Delta Glucose AUC 0 to 90 min were analyzed using Column Statistics Analysis, with mean values used to calculate % change from the vehicle mean group, as well as mean, SEM and/or % change from vehicle, where appropriate; and using One-Way ANOVA w/ a Tukey Post-Test (Comparing All Pairs of Columns) with each treatment group examined to see if it was statistically significant compared to vehicle (*=P<0.05, **=P<0.01, ***=P<0.001).

[2] = system: C57b16 mouse; test: C57b16 mouse OGTT; type: in vivo; conditions: dosed 30 min prior to glucose PO 3 g/kg
Description: (§1) Male, C57bl/6J Mice were ordered in at 8 weeks of age from Jackson Labs. Individual mice weighed anywhere in the range of 25-30 grams on study day. The mice were fasted, with removal of food occurring at 7 am on the morning of the study. Animals were moved into the room at 10:00 am, to give them time to acclimate. Glucose (insulin syringes) was drawn up either the night before or the morning of the study. Glucose was dosed (IP) at 1.5 g/kg at 7.5 ml/kg (20% glucose straight TEKNOVA, 250 ml sterile bottle w/ catalogue number G0525). Test compounds were kept spinning and were only drawn into the syringes prior to study commencement. Animals were bled via tail snip to determine basal glucose levels prior to dosing of treatments. An Ascensia BREEZE Blood Glucose Monitoring System by Bayer (using unique 10-test disks) was used for determining glucose levels. The bleeds started at approximately 12:45 pm and dosing started, at 1-minute intervals, immediately after. All groups were dosed 30 minutes prior to glucose administration at a dose volume of 10 ml/kg (the dose volume was calculated separately for each individual animal). Thirty minutes after the first dose animals were bled again for a second baseline, or T=0, and immediately dosed with glucose via an i.p. injection. The exact dose volume for glucose was also calculated separately for each individual animal. Glucose measurements were taken at −30 min prior to compound dose, at t=0 (immediately prior to glucose dose), and at 15, 30, 45, 60, 90 min post glucose dose.
(§2) Glucose values were entered into an Excel sheet and graphed in GraphPad Prism. The following were calculated from Prism: Change from −30 to 0 BSLN Glucose, Raw Glucose AUC −30 to 90 min, Delta Glucose AUC −30 to 90 min, Raw Glucose AUC 0 to 90 min, Delta Glucose AUC 0 to 90 min.
The assay design is the same as that described above for the C57b16 mouse IPGTT. The difference is that glucose was dosed PO at 3 g/kg, 7.5 ml/kg of 40% glucose.

[3] = system: C57bl/6J Mice; test: GPR120 C57bl6 mouse IPGTT; type: in vivo; conditions: 3 mg/kg, dosed 30 min prior to glucose IP 1.5 g/kg
Description: as §1, §2

With `Cc1ccc(-c2nsc(C(F)(F)F)c2COc2c(F)cc(CCC(=O)O)cc2F)c(F)c1` [Cpd 65, 3-(3,5-difluoro-4-[[3-(2-fluoro-4-methylphenyl)-5-(trifluoromethyl)-1,2-thiazol-4-yl]methoxy]phenyl)propanoic acid] the “DIO Lowering Glucose AUC (−30 to 90) @ 10 mg/kg” value (from here on “DIO Lowering Glucose AUC”) [1] was −0.61.
For `O=C(O)CCc1cc(F)c(OCc2c(-c3ccc(Cl)c(F)c3)nsc2C(F)(F)F)c(F)c1` [Cpd 67, 3-(4-((3-(4-chloro-3-fluorophenyl)-5-(trifluoromethyl)isothiazol-4-yl)methoxy)-3,5-difluorophenyl)propanoic acid], the “DIO Lowering Glucose AUC” value [1] was −0.78.
With `O=C(O)CCc1cc(F)c(OCc2c(C3CCCC3)nsc2C(F)(F)F)c(F)c1` [Cpd 71, 3-(4-[[3-cyclopentyl-5-(trifluoromethyl)-1,2-thiazol-4-yl]methoxy]-3,5-difluorophenyl)propanoic acid] the “C57 OGTT 3 mg/kg” value [2] was −37, the “DIO Lowering Glucose AUC” value [1] was −0.52 and the “C57 IPGTT 3 mg/kg” value [3] was −14.
For `CCc1ccc(-c2nsc(C(F)(F)F)c2COc2ccc(CCC(=O)O)c(F)c2F)cc1` [Cpd 73, 3-(4-((3-(4-ethylphenyl)-5-(trifluoromethyl)isothiazol-4-yl)methoxy)-2,3-difluorophenyl)propanoic acid], the “DIO Lowering Glucose AUC” value [1] was −0.51.
In the case of `O=C(O)CCc1cc(F)c(OCc2c(-c3ccc(Cl)cc3F)nsc2C(F)(F)F)c(F)c1` [Cpd 74, 3-(4-((3-(4-chloro-2-fluorophenyl)-5-(trifluoromethyl)isothiazol-4-yl)methoxy)-3,5-difluorophenyl)propanoic acid], the “DIO Lowering Glucose AUC” value [1] is reported as −0.71.
With `Cc1ccc(-c2nsc(C(F)(F)F)c2COc2c(F)cc(CC(C)C(=O)O)cc2F)c(F)c1` (centres unmarked) [Cpd 76, 3-(3,5-difluoro-4-[[3-(2-fluoro-4-methylphenyl)-5-(trifluoromethyl)-1,2-thiazol-4-yl]methoxy]phenyl)-2-methylpropanoic acid] the “DIO Lowering Glucose AUC” value [1] was −0.8.
